Data published in patent US9469653B2, “Pharmaceutical compositions for preventing or treating degenerative brain disease and method of screening the same” (KOREA INSTITUTE OF SCIENCE AND TECHNOLOGY, priority 2011, dated 2016).
Like-named read-outs stand apart in the source and are kept apart here.

Assays:
[1] = molecular target: T1, human MAO-B enzyme (Homo sapiens (Human), UniProt P27338); assay: Screening of MAO-B activity inhibition (Amplex Red monoamine oxidase assay kit, benzylamine substrate); format: biochemical; conditions: 10 uM of the synthesized compound, pargyline-corrected
Procedure: A stock solution was prepared using a human MAO-B enzyme (purchased from Aldrich) and a Amplex® Red monoamine oxidase assay kit according to a preparation manual. The kit includes a 5× reaction buffer, an Amplex® red reagent (1 mg), HRP, DMSO, H2O2, p-tyramine (substrate of MAO-A, B), benzylamine (substrate of MAO-B), clorgiline (inhibitor of MAO-A), and pargyline (inhibitor of MAO-B). Among these reagents in the kit, benzylamine was used as a substrate for MAO-B, and pargyline was used as an MAO-B inhibitor. A solution as overall substrates was prepared as follows. 200 ul of a solution of 1 mg of Amplex® red sufficiently dissolved in 200 ul of DMSO, 100 ul of a mixed solution of HRP and 1 ml of a 1× buffer, 200 ul of a solution of benzylamine dissolved in 1.2 ml of dH2O were added to 9.5 ml of a 1× buffer to reach a total volume of 10 mL, which is sufficient for 100 wells. 0.5 ul of a mixture of MAO-B inhibitor pargyline and 1 ml of dH2O was put into each well. First, the activity of MAO-B was determined using 10 uM of the synthesized compound.
96 wells were injected with positive and negative types, and the wile type. The positive type included only substrate and hydrogen peroxide, and the negative type included only substrate. For the wild type, corresponding wells were injected with the enzyme, substrate, and MAO-B inhibitor, but with no synthesized compound. Afterward, 2 ul of the synthesized compound (1 mM) was added into each well, and the human MAO-B enzyme was put only into the 1st row of wells. 0.5 ug of the human MAO-B was put into each well along with 100 ul of a 1× buffer. The human MAO-B enzyme was put into the 2nd row of the wells along with 0.5 ul of a pargyline, the MAO-B inhibitor. To reduce an experimental error for accuracy, the test was repeated three times for each compound. After 30 minutes, 100 ul of the substrate solution was added into each well in a darkroom. The test was performed in the darkroom due to light sensitivity of the Amplex® reagent. Finally, a total volume of the reaction solution per well reached 200 ul. After about 2 to 3 hours, chromophoric degrees of the samples were measured. A variation in data values for the 1st and 2nd rows of the wells indicates the pure reaction activity of the MAO-B enzyme with the substrate. Using the samples with the synthesized compound the remaining activity of MAO-B after inhibited by the synthesized compound may be determined. This is because the activities of the other enzymes excluding the MAO-B enzyme may be excluded through this method. Compounds with high inhibitory activity at a concentration of 10 uM were screened from among the synthesized compounds at a compound concentration of 10 uM.

[2] = molecular target: T1, human MAO-B enzyme; assay: as above; format: biochemical
[3] = activity assay at 0.001, 0.01, 0.1, 1 and 10 uM

T1 sequence (P27338 whole entry): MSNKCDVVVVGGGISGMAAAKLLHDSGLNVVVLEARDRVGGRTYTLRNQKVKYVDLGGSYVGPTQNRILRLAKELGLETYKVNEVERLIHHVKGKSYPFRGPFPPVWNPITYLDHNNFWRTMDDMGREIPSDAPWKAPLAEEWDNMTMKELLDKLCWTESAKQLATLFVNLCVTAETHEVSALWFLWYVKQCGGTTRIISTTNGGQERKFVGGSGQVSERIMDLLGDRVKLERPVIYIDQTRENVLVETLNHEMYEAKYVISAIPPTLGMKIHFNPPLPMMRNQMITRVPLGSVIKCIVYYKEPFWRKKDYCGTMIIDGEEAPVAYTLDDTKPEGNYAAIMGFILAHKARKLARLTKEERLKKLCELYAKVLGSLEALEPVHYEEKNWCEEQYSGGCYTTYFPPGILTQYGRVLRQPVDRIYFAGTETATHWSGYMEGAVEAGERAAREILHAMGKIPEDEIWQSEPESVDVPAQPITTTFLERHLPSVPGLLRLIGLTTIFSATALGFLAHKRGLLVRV

Molecule: Clc1ccc(-c2nc3ccc(N4CCCCC4)nc3o2)cc1 [Example 5-46]
- Remaining activity of MAO-B (%) [1]: 56.0%

Molecule: c1ccc(-c2nc3ccc(NC4CCCCC4)nc3o2)cc1 [Example 5-80, N-cyclohexyl-2-phenyloxazolo[5,6-b]pyridine-5-amine]
- Remaining activity of MAO-B (%) [1]: 11.1%

Molecule: Clc1ccc(-c2nc3ccc(N4CCCC4)nc3o2)cc1 [Example 5-35, 2-chlorophenyl-5-(pyrrolidine-1-yl)oxazolo[5,4-b]pyridine]
- Remaining activity of MAO-B (%) [1]: 42.4%

Molecule: N#Cc1ccc(-c2nc3ccc(N4CCCCC4)nc3o2)cc1 [Example 5-50, 4-(5-(piperidine-1-yl)oxazolo[5,4-b]pyridine-2-yl)benzonitrile]
- Remaining activity of MAO-B (%) [1]: 71.2%

Molecule: CN(Cc1ccccc1)c1ccc2nc(-c3ccccc3)oc2n1 [Example 5-63, N-benzyl-N-methyl-2-phenyloxazolo[5,4-b]pyridine-5-amine]
- Remaining activity of MAO-B (%) [1]: 53.2%

Molecule: O=[N+]([O-])c1cccc(-c2nc3ccc(N4CCCCC4)nc3o2)c1 [Example 5-43]
- Remaining activity of MAO-B (%) [1]: −21.5%

Molecule: CN(Cc1ccccc1)c1ccc2nc(-c3ccc([N+](=O)[O-])cc3)oc2n1 [Example 5-71, N-benzyl-N-methyl-2-(4-nitrophenyl)oxazolo[5,4-b]pyridine-5-amine]
- Remaining activity of MAO-B (%) [1]: 101.2%

Molecule: Brc1ccc(-c2nc3ccc(N4CCCC4)nc3o2)cc1 [Example 5-36]
- Remaining activity of MAO-B (%) [1]: 33.5%

Molecule: Cc1cccc(-c2nc3ccc(N4CCCCC4)nc3o2)c1 [Example 5-42, 5-(piperidine-1-yl)-2-m-tolyloxazolo[5,4-b]pyridine]
- Remaining activity of MAO-B (%) [1]: −7.8%

Molecule: CNc1ccc2nc(-c3ccc(Cl)cc3)oc2n1 [Example 5-77, 2-(4-chlorophenyl)-N-methyloxazolo[5,4-b]pyridine-5-amine]
- Remaining activity of MAO-B (%) [1]: 4.14%
- IC50 [2, 3]: 3020 nM

Molecule: Clc1cccc(-c2nc3ccc(NC4CCCCC4)nc3o2)c1 [Example 5-53, 2-(3-chlorophenyl)-N-cyclohexyloxazolo[5,4-b]pyridine-5-amine]
- Remaining activity of MAO-B (%) [1]: 39.3%

Molecule: COc1ccc(-c2nc3ccc(N(C)Cc4ccccc4)nc3o2)cc1 [Example 5-70, N-benzyl-2-(4-methoxyphenyl)-N-methyloxazolo[5,4-b]pyridine-5-amine]
- Remaining activity of MAO-B (%) [1]: 52.4%

Molecule: 2-fluorophenyl-5-(pyrrolidine-1-yl)oxazolo[5,4-b]pyridine [Example 5-34]
- Remaining activity of MAO-B (%) [1]: 8.4%
- IC50 [2]: 8700 nM

Molecule: CN(Cc1ccccc1)c1ccc2nc(-c3ccccc3)sc2n1 [Example 5-64, N-benzyl-N-methyl-2-phenylthiazole[5,4-b]pyridine-5-amine]
- Remaining activity of MAO-B (%) [1]: 47.8%

Molecule: COc1ccc(-c2nc3ccc(N4CCCCC4)nc3o2)cc1 [Example 5-49, 2-(4-methoxyphenyl)-5-(piperidine-1-yl)oxazolo[5,4-b]pyridine]
- Remaining activity of MAO-B (%) [1]: 15.8%
- IC50 [2, 3]: 1520 nM

Molecule: CNc1ccc2nc(-c3ccccc3)sc2n1 [Example 5-74, N-methyl-2-phenylthiazolo[5,4-b]pyridine-5-amine]
- Remaining activity of MAO-B (%) [1]: 27.2%
- IC50 [2, 3]: 15700 nM

Molecule: c1ccc(-c2nc3ccc(N4CCCCC4)nc3o2)cc1 [Example 5-37, 2-phenyl-5-(piperidine-1-yl)oxazolo[5,4-b]pyridine]
- Remaining activity of MAO-B (%) [1]: 3.09%
- IC50 [2, 3]: 2000 nM

Molecule: c1ccc(-c2nc3ccc(N4CCCCCC4)nc3s2)cc1 [Example 5-55, 5-(azepane-1-yl)-2-phenylthiazolo[5,4-b]pyridine]
- Remaining activity of MAO-B (%) [1]: −1.8%

Molecule: c1ccc(-c2nc3ccc(N4CCCC4)nc3s2)cc1 [Example 5-31, 2-phenyl-5-(pyrrolidine-1-yl)thiazolo[5,4-b]pyridine]
- Remaining activity of MAO-B (%) [1]: 1.7%
- IC50 [2, 3]: 7300 nM

Molecule: c1ccc(-c2nc3ccc(N4CCCC4)nc3o2)cc1 [Example 5-30, 2-phenyl-5-(pyrrolidine-1-yl)oxazolo[5,4-b]pyridine]
- Remaining activity of MAO-B (%) [1]: 2.31%
- IC50 [2, 3]: 410 nM

Molecule: N#Cc1cccc(-c2nc3ccc(N4CCCCC4)nc3o2)c1 [Example 5-44, 3-(5-(piperidine-1-yl)oxazolo[5,4-b]pyridine-2-yl)benzonitrile]
- Remaining activity of MAO-B (%) [1]: 10.1%

Molecule: c1ccc(-c2nc3ccc(N4CCCCCC4)nc3o2)cc1 [Example 5-54, 5-(azepane-1-yl)-2-phenyloxazolo[5,4-b]pyridine]
- Remaining activity of MAO-B (%) [1]: 57.5%

Molecule: Brc1ccc(-c2nc3ccc(N4CCCCC4)nc3o2)cc1 [Example 5-47, 2-(4-bromophenyl)-5-(piperidine-1-yl)oxazolo[5,4-b]pyridine]
- Remaining activity of MAO-B (%) [1]: 28.6%
- IC50 [2, 3]: 96 nM

Molecule: CN(Cc1ccccc1)c1ccc2nc(-c3ccccc3Cl)oc2n1 [Example 5-65, N-benzyl-2-(2-chlorophenyl)-N-methyloxazolo[5,4-b]pyridine-5-amine]
- Remaining activity of MAO-B (%) [1]: 84.1%

Molecule: Cc1ccc(-c2nc3ccc(N(C)Cc4ccccc4)nc3o2)cc1 [Example 5-69, N-benzyl-N-methyl-2-p-tolyloxazolo[5,4-b]pyridine-5-amine]
- Remaining activity of MAO-B (%) [1]: 84.1%

Molecule: Fc1cccc(-c2nc3ccc(NCc4ccccc4)nc3o2)c1 [Example 5-59, N-benzyl-2-(3-fluorophenyl)oxazolo[5,4-b]pyridine-5-amine]
- Remaining activity of MAO-B (%) [1]: 51.9%

Molecule: Cc1ccc(-c2nc3ccc(N4CCCCC4)nc3o2)cc1 [Example 5-48, 5-(piperidine-1-yl)-2-p-tolyloxazolo[5,4-b]pyridine]
- Remaining activity of MAO-B (%) [1]: 46.2%

Molecule: Clc1cccc(-c2nc3ccc(N4CCCC4)nc3o2)c1 [Example 5-33, 2-chlorophenyl-5-(pyrrolidine-1-yl)oxazolo[5,4-b]pyridine]
- Remaining activity of MAO-B (%) [1]: 14.2%

Molecule: CNc1ccc2nc(-c3ccccc3)oc2n1 [Example 5-73, N-methyl-2-phenyloxazolo[5,4-b]pyridine-5-amine]
- Remaining activity of MAO-B (%) [1]: 51%

Molecule: c1ccc(-c2nc3ccc(NCCN4CCOCC4)nc3s2)cc1 [Example 5-62, N-(2-morpholinoethyl)-2-phenylthiazolo[5,4-b]pyridine-5-amine]
- Remaining activity of MAO-B (%) [1]: 42.7%

Molecule: Clc1cccc(-c2nc3ccc(NCc4ccccc4)nc3o2)c1 [Example 5-60, N-benzyl-2-(3-chlorophenyl)oxazolo[5,4-b]pyridine-5-amine]
- Remaining activity of MAO-B (%) [1]: 55.4%

Molecule: CN(Cc1ccccc1)c1ccc2nc(-c3ccc(C#N)cc3)oc2n1 [Example 5-72]
- Remaining activity of MAO-B (%) [1]: 108.8%

Molecule: c1ccc(-c2nc3ccc(NC4CCCCC4)nc3s2)cc1 [Example 5-52, N-cyclohexyl-2-phenylthiazolo[5,4-b]pyridine-5-amine]
- Remaining activity of MAO-B (%) [1]: 43%

Molecule: Fc1ccc(-c2nc3ccc(N4CCCCCC4)nc3o2)cc1 [Example 5-56, 5-(azepane-1-yl)-2-(4-fluorophenyl)oxazolo[5,4-b]pyridine]
- Remaining activity of MAO-B (%) [1]: 61.4%

Molecule: CNc1ccc2nc(-c3ccc(C)cc3)oc2n1 [Example 5-78, N-methyl-2-p-tolyloxazolo[5,4-b]pyridine-5-amine]
- Remaining activity of MAO-B (%) [1]: 45.8%

Molecule: Clc1cccc(-c2nc3ccc(NC4CCCC4)nc3o2)c1 [Example 5-51, 2-(3-chlorophenyl)-N-cyclopentyloxazolo[5,4-b]pyridine-5-amine]
- Remaining activity of MAO-B (%) [1]: 37.2%

Molecule: Clc1ccc(-c2nc3ccc(NCc4ccccc4)nc3o2)cc1 [Example 5-61, N-benzyl-2-(4-chlorophenyl)oxazolo[5,4-b]pyridine-5-amine]
- Remaining activity of MAO-B (%) [1]: 46.4%

Molecule: Clc1cccc(-c2nc3ccc(N4CCCCC4)nc3o2)c1 [Example 5-41, 2-chlorophenyl-5-(piperidine-1-yl)oxazolo[5,4-b]pyridine]
- Remaining activity of MAO-B (%) [1]: 17%

Molecule: CNc1ccc2nc(-c3ccc(OC)cc3)oc2n1 [Example 5-79, 2-(4-methoxyphenyl)-N-methyloxazolo[5,4-b]pyridine-5-amine]
- Remaining activity of MAO-B (%) [1]: 84.5%

Molecule: CN(Cc1ccccc1)c1ccc2nc(-c3cccc(F)c3)oc2n1 [Example 5-66, N-benzyl-2-(3-fluorophenyl)-N-methyloxazolo[5,4-b]pyridine-5-amine]
- Remaining activity of MAO-B (%) [1]: 43%

Molecule: c1ccc(CNc2ccc3nc(-c4ccccc4)oc3n2)cc1 [Example 5-57, N-benzyl-2-phenyloxazolo[5,4-b]pyridine-5-amine]
- Remaining activity of MAO-B (%) [1]: 63.1%
